These results are taken from patent US20250333405A1, “ANTAGONISTS OF GPR39 PROTEIN” (VASOCARDEA, INC., priority 2024, published 2025).

pKi: −log10 of the molar value.

For the test, the target named is T1, human GPR39 receptor (Homo sapiens, UniProt O43194).
T1 construct: PC3 Cells, Expressing the Endogenous Human GPR39 Receptor; endogenous in cells; host or cells: PC3 (human prostate adenocarcinoma) cells
T1 sequence (O43194 1-453): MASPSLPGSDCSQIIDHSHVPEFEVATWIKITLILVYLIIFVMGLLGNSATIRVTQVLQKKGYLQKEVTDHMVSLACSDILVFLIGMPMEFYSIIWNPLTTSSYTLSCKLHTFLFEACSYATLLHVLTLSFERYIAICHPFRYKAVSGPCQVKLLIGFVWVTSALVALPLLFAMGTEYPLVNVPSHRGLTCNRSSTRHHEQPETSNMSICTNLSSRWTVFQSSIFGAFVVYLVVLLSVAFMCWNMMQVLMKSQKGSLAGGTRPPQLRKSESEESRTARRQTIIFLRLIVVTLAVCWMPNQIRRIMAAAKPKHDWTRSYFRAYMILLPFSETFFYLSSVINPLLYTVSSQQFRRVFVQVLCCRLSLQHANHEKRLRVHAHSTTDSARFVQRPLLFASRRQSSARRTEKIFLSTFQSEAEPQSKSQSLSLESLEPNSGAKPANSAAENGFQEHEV
The test is described as follows: Intracellular calcium response (FLIPR, Calcium-6) in PC3 cells, antagonism of agonist C3 (TC-G 1008) at EC90. The format is cell-based. Conditions: functional pKi (-Log10Ki) by modified Cheng-Prusoff from IC50; PC3 cells endogenously expressing human GPR39; 30 μM ZnCl2; agonist C3 (TC-G 1008) at EC90 1.5 μM; read-out: fpKi activity. Here is the method: Measurement of Intracellular Calcium Response in PC3 Cells, Expressing the Endogenous Human GPR39 Receptor
Human prostate adenocarcinoma (PC3) cells endogenously expressing human GPR39 receptor were seeded into black walls clear-base 384-well plates at a density of 7,500 cells per well in DMEM (Low Glucose) supplemented with 10% heat-inactivated foetal bovine serum and 1% of Pen/Strep and grown overnight at 37° C., 5% CO2. After washing with assay buffer (20 mM HEPES, 137 mM NaCl, 5.4 mM KCl, 10 mM glucose, 0.8 mM MgSO4, 1.3 mM CaCl2), 0.3 mM Na2HPO4, 0.4 mM KH2PO4 4.2 mM NaHCO3, pH 7.4), cells were incubated with Calcium-6 probe (Molecular Devices) at 37° C. for 2 h and then equilibrated at RT for 30 minutes on metal block. The fluorescence was measured in real time by Fluorometric Imaging Plate Reader (FLIPR TETRA, Molecular Devices) (excitation wavelength at 470-495 nm, emission wavelength at 515-575 nm). Compounds of invention were serially diluted in neat DMSO at 1000 fold concentrations and plated into 384-well plates and then 200-fold diluted in assay buffer containing 150 μM ZnCl2 (30 μM final concentration) and 1.1% DMSO (0.32% final concentration). A dual addition FLIPR protocol was used which included a first addition of compounds 200-fold diluted in Assay Buffer containing 150 μM ZnCl2 and 1.1% DMSO and then after 10 minutes a second addition of a submaximal concentration of the hGPR39 receptor agonist, C3 (Tocris, TC-G 1008) at EC90 (concentration producing 90% of the maximal response) value of 1.5 μM. Fluorescence was monitored throughout the run assay. The peak of Ca2+ stimulation (baseline subtracted) was expressed as percentage of the maximal inhibition of the EC90 C3 response and was plotted versus the concentration of test compound. Curve fitting and IC50 estimations are carried out using a four-parameter logistic model using XLfit Software. […] An fpKi less than 5.2 is reported as “+/−”. An fpKi ranging from 5.2 to 5.9 is reported as “+”. An fpKi from 6.0 to 6.5 is reported as “++”. An fpKi from 6.6 to 7.2 is reported as “+++”. An fpKi equal to or greater than 7.3 is reported as “++++”.

On to `CC1CN(C(=O)c2ccc(NC(=O)C3CC3)cc2N2CCCC2)CC(C)S1(=O)=O` (stereo not shown) [Example 5, N-[4-(2,6-dimethyl-1,1-dioxo-1,4-thiazinane-4-carbonyl)-3-pyrrolidin-1-ylphenyl]cyclopropanecarboxamide], for which the pKi is under 5.20.

For `O=C(Nc1ccc(C(=O)N2CC3CCC(C2)O3)c(N2CCCC2)c1)C1CC1` [Example 6, N-[4-(8-oxa-3-azabicyclo[3.2.1]octane-3-carbonyl)-3-pyrrolidin-1-ylphenyl]cyclopropanecarboxamide], the pKi is 6.00 to 6.50.

As for `O=C(Nc1ccc(C(=O)N2C3CCC2COC3)c(N2CCCC2)c1)C1CC1` [Example 7, N-[4-(3-oxa-8-azabicyclo[3.2.1]octane-8-carbonyl)-3-pyrrolidin-1-ylphenyl]cyclopropanecarboxamide], the pKi was 5.20 to 5.90.

`O=C(Nc1ccc(C(=O)N2CC3CC(C2)O3)c(N2CCCC2)c1)C1CC1` [Example 8, N-[4-(6-oxa-3-azabicyclo[3.1.1]heptane-3-carbonyl)-3-pyrrolidin-1-ylphenyl]cyclopropanecarboxamide]: the pKi was 5.20 to 5.90.

`O=C(Nc1ccc(C(=O)N2CC3CC(C3)C2)c(N2CCCC2)c1)C1CC1` [Example 9, N-[4-(3-azabicyclo[3.1.1]heptane-3-carbonyl)-3-pyrrolidin-1-ylphenyl]cyclopropanecarboxamide]: the pKi was 6.00 to 6.50.

Consider `CN1CCN(C(=O)c2ccc(Nc3nc4ccccn4n3)cc2N2CCCC2)C(c2ccccc2)C1` (stereo not shown) [Example 19, (4-methyl-2-phenylpiperazin-1-yl)-[2-pyrrolidin-1-yl-4-([1,2,4]triazolo[1,5-a]pyridin-2-ylamino)phenyl]methanone], for which the pKi is under 5.20.

For the compound `Cc1nnc(Nc2ccc(C(=O)N3CCN(C)CC3c3ccccc3)c(N3CCCC3)c2)s1` (stereo not shown) [Example 20, (4-methyl-2-phenylpiperazin-1-yl)-[4-[(5-methyl-1,3,4-thiadiazol-2-yl)amino]-2-pyrrolidin-1-ylphenyl]methanone], the pKi was 5.20 to 5.90.

With `CN1CCN(C(=O)c2ccc(-c3cn[nH]c3)cc2N2CCCC2)C(c2ccccc2)C1` (stereo not shown) [Example 21, (4-methyl-2-phenylpiperazin-1-yl)-[4-(1H-pyrazol-4-yl)-2-pyrrolidin-1-ylphenyl]methanone], the pKi was under 5.20.

Take `Cn1ccc(-c2cc(NC(=O)C3CC3)ccc2C(=O)N2CCC(F)(F)CC2)n1` [Example 22, N-[4-(4,4-difluoropiperidine-1-carbonyl)-3-(1-methylpyrazol-3-yl)phenyl]cyclopropanecarboxamide]: the pKi was 6.60 to 7.20.

In the case of `CC(C)n1ccc(-c2cc(NC(=O)C3CC3)ccc2C(=O)N2CCC(F)(F)CC2)n1` [Example 23, N-[4-(4,4-difluoropiperidine-1-carbonyl)-3-(1-propan-2-ylpyrazol-3-yl)phenyl]cyclopropanecarboxamide], the pKi is at least 7.30.

`CCCN1CCN(C(=O)c2ccc(NC(=O)C3CC3)cc2-c2ccn(C(C)C)n2)CC1` [Example 24, N-[3-(1-propan-2-ylpyrazol-3-yl)-4-(4-propylpiperazine-1-carbonyl)phenyl]cyclopropanecarboxamide]: the pKi was at least 7.30.

As for `Cc1ccc(-c2cc(NC(=O)C3CC3)ccc2C(=O)N2CCS(=O)(=O)CC2)s1` [Example 25, N-[4-(1,1-dioxo-1,4-thiazinane-4-carbonyl)-3-(5-methylthiophen-2-yl)phenyl]cyclopropanecarboxamide], the pKi is 6.00 to 6.50.

With `N#Cc1ccc(-c2cc(NC(=O)C3CC3)ccc2C(=O)N2CCS(=O)(=O)CC2)s1` [Example 26, N-[3-(5-cyanothiophen-2-yl)-4-(1,1-dioxo-1,4-thiazinane-4-carbonyl)phenyl]cyclopropanecarboxamide], the pKi is 5.20 to 5.90.

For `O=C(Nc1ccc(C(=O)N2CCS(=O)(=O)CC2)c(-c2cnc(C(F)(F)F)s2)c1)C1CC1` [Example 27, N-[4-(1,1-dioxo-1,4-thiazinane-4-carbonyl)-3-[2-(trifluoromethyl)-1,3-thiazol-5-yl]phenyl]cyclopropanecarboxamide], the pKi was 5.20 to 5.90.

On to `CC(C)n1ccc(-c2cc(NC(=O)C3CC3)ccc2C(=O)N2CCS(=O)(=O)CC2)n1` [Example 28, N-[4-(1,1-dioxo-1,4-thiazinane-4-carbonyl)-3-(1-propan-2-ylpyrazol-3-yl)phenyl]cyclopropanecarboxamide], for which the pKi is at least 7.30.

Turning to `O=C(Nc1ccc(C(=O)N2CCS(=O)(=O)CC2)c(-c2ccc(C(F)(F)F)s2)c1)C1CC1` [Example 29, N-[4-(1,1-dioxo-1,4-thiazinane-4-carbonyl)-3-[5-(trifluoromethyl)thiophen-2-yl]phenyl]cyclopropanecarboxamide], the pKi is 6.00 to 6.50.

Turning to `O=C(Nc1ccc(C(=O)N2CCS(=O)(=O)CC2)c(-c2cccc(C(F)(F)F)n2)c1)C1CC1` [Example 37, N-[4-(1,1-dioxo-1,4-thiazinane-4-carbonyl)-3-[6-(trifluoromethyl)pyridin-2-yl]phenyl]cyclopropanecarboxamide], the pKi was at least 7.30.

`O=C(Nc1ccc(C(=O)N2CCC3(CC2)COC3)c(-c2cccc(C(F)(F)F)n2)c1)C1CC1` [Example 38, N-[4-(2-oxa-7-azaspiro[3.5]nonane-7-carbonyl)-3-[6-(trifluoromethyl)pyridin-2-yl]phenyl]cyclopropanecarboxamide]: the pKi was at least 7.30.

In the case of `COC1(C)CCN(C(=O)c2ccc(-c3nnc(C)[nH]3)cc2-c2ccn(C(C)C)n2)CC1` [Example 39, [2-(1-isopropylpyrazol-3-yl)-4-(5-methyl-4H-1,2,4-triazol-3-yl)phenyl]-(4-methoxy-4-methyl-1-piperidyl)methanone], the pKi is at least 7.30.

Take `Cc1nnc(-c2ccc(C(=O)N3CCC(C(C)(C)C)CC3)c(-c3ccn(C(C)C)n3)c2)[nH]1` [Example 40, (4-tert-butyl-1-piperidyl)-[2-(1-isopropylpyrazol-3-yl)-4-(5-methyl-4H-1,2,4-triazol-3-yl)phenyl]methanone]: the pKi is 6.60 to 7.20.

Consider `Cc1nnc(-c2ccc(C(=O)N3CCC4(CCO4)CC3)c(-c3ccn(C(C)C)n3)c2)[nH]1` [Example 41, [2-(1-isopropylpyrazol-3-yl)-4-(5-methyl-4H-1,2,4-triazol-3-yl)phenyl]-(1-oxa-7-azaspiro[3.5]nonan-7-yl)methanone], for which the pKi is at least 7.30.

`CCOC1CCN(C(=O)c2ccc(-c3nnc(C)[nH]3)cc2-c2ccn(C(C)C)n2)CC1` [Example 42, (4-ethoxy-1-piperidyl)-[2-(1-isopropylpyrazol-3-yl)-4-(5-methyl-4H-1,2,4-triazol-3-yl)phenyl]methanone]: the pKi was at least 7.30.

As for `Cc1nnc(-c2ccc(C(=O)N3CCC(C)(F)CC3)c(-c3ccn(C(C)C)n3)c2)[nH]1` [Example 43, (4-fluoro-4-methylpiperidin-1-yl)-[4-(5-methyl-4H-1,2,4-triazol-3-yl)-2-(1-propan-2-ylpyrazol-3-yl)phenyl]methanone], the pKi was at least 7.30.

As to `CCn1nccc1-c1cc(-c2nnc(C)[nH]2)ccc1C(=O)N1CCC(F)(F)CC1` [Example 44, (4,4-difluoropiperidin-1-yl)-[2-(2-ethylpyrazol-3-yl)-4-(5-methyl-4H-1,2,4-triazol-3-yl)phenyl]methanone], the pKi is 5.20 to 5.90.

Turning to `Cc1nnc(-c2ccc(C(=O)N3CCC(C(F)(F)F)CC3)c(-c3ccn(CC(C)C)n3)c2)[nH]1` [Example 45, [2-[1-(2-methylpropyl)pyrazol-3-yl]-4-(5-methyl-4H-1,2,4-triazol-3-yl)phenyl]-[4-(trifluoromethyl)piperidin-1-yl]methanone], the pKi was at least 7.30.
